According to patent US20260060970A1, “Use of a Therapeutic Agent with Phosphodiesterase-7 Inhibitory Activity for the Treatment and Prevention of Diseases Associated with Chronic Fatigue, Exhaustion and/or Exertional Intolerance” (MITODICURE GMBH, priority 2022, published 2026):

How the values were obtained:
[1] = tested on: isolated rat soleus muscle; test: Ex vivo model: residual contractile force of isolated rat soleus muscle in high KCl buffer (Na+/K+ATPase activation); settings: for Mean residual contractile force in % (SEM in %): after 30 min in KCl 12.5 mM buffer
Excerpt: Muscular fatigue and loss of force (e.g., loss of handgrip strength) is a hallmark in ME/CFS patients. A main target of PDE7 inhibition is the skeletal muscle whose energetic function is deeply disturbed in ME/CFS and which is presumed to be very important in the symptomatology of ME/CFS. Insufficient stimulation of the Na^+/K^+ATPase plays a key role in the development of the disturbances by a rise in intramuscular sodium that finally leads to calcium overload. The latter causes a deep functional energetic disturbance or damage. The isolated rat muscle either soleus muscle or extensor digitorum longus muscle is a well-characterized and well-validated model for the study of the function of the Na^+/K^+ATPase. The isolated rat soleus muscle is particularly appropriate for experiments ex vivo as it is very thin so that there is no need for blood supply. […] In the experimental setting used, the high KCl concentration buffer causes partial depolarization that leads to sodium influx to disturb and to decrease excitability to subsequently reduce muscle force. Stimulation of Na^+/K^+ATPase lowers intracellular sodium levels towards physiological levels to restore excitability and muscular force during electrical stimulation.
The decline in force in the soleus muscle can be considered as muscular fatigue and related to the loss of hand grip muscular strength in ME/CFS patients. As the phosphodiesterase isoenzyme subtype 7 (PDE7) is the predominant PDE isoenzyme in skeletal muscle to raise cAMP this ex vivo model is suited for the testing the effect of PDE7 inhibitors and in particular their effect on force generation disturbed by mechanisms that worsen excitability or the energetic situation. […] High level activity of Na^+/K^+ATPase stimulated by cAMP can counteract the decrease in excitability and the loss of force.
Muscle preparation and incubation: Female Sprague Dawley rats of 5 weeks of age were used. After isoflurane anesthesia and cervical dislocation the intact soleus muscles of the animals were dissected. The soleus muscles were mounted at resting length in a vertical position between two field stimulation electrodes (thick copper wires) in organ bathes containing 15 mL incubation medium. The lower end of the muscle was fixed to a clip fixed to the bottom of the organ bath, the upper end of the muscle was fixed to an isometric force transducer (Force transducer K300 Hugo Sachs) by a clip allowing measurement of isometric contractions, and a tension of 100 mN was applied.
Force measurement: The experimental set-up used for force measurements allowed for the simultaneous recordings from 6 muscles in separate incubation chambers in parallel. Force was recorded and stored with a Notocord HEM data acquisition system. […] Incubation took place at 30° C. […] Electrical stimulation protocol: After an equilibration period of 30 min muscles were field-stimulated to deliver optimal force at 83 Hz, 2-3 ms pulses, 12 V (biphasic), 0.2-0.5 s train width with a Hugo Sachs stimulator (HSE). […] Stimulations were then performed every 5 min for 30 min. […] Two control groups were included.
The residual contractile force after 30 min in high KCl buffer was chosen as the efficacy parameter and related to the last value of stimulated force in the initial buffer in the same organ bath. The percentages of residual force were compared between the different groups and used for statistical calculation.

[2] = target: T1, PDE7A (Homo sapiens, UniProt Q13946); test: PDE7 enzymatic assay, IC50 determination (PDE7A); assay type: biochemical; settings: human recombinant enzyme, 0.1 μM FAM-cAMP, 30 min 25° C.
T1 construct: host or cells: Sf9 insect cells
Procedure: (§1) The ability of compounds to inhibit PDE7 may be measured using the following assay protocal: Assay methods for IC50 determination of PDE7 and variants involve as enzyme source human recombinant insect Sf9 cells. The substrate is 0.1 μM FAM-cAMP and the vehicle is 1.0% DMSO or 1.0% PEG 400. Pre-incubation time and temperature are 15 minutes at 25° C. and incubation time and temperature are 30 minutes at 25° C. The incubation buffer consists of 10 mM Tris-HCl, PH 7.2, 10 mM MgCl2, 0.05% NaN3, and 0.1% phosphate-free BSA. The quantitation method used is spectrofluorimetric quantitation of Fluorescein-AMP-IMAP. IBMX reference standards are run as an integral part of each assay to ensure the validity of the results obtained. The IC50 is the concentration of the compound (inhibitor) tested in the assay which makes it possible to reduce the enzymatic activity of PDE7 by 50%. IC50 values are finally determined by a non-linear, least squares regression analysis using MathIQ™ (ID Business Solutions Ltd., UK).
(§2) The compounds to be tested as PDE7 inhibitors were initially dissolved in vehicle at a concentration of 30 mM. These solutions were tested as the highest test concentration and then further diluted in cascade always in a ratio of 1:6 to obtain solutions with the desired lower test concentrations. Each assay was carried out in duplicate.

[3] = tested on: PDE7; test: PDE7 enzymatic assay, IC50 determination (PDE7); assay type: biochemical; settings: human recombinant enzyme, 0.1 μM FAM-cAMP, 30 min 25° C.
Procedure: as §1, §2

[4] = target: T2, PDE7B (Homo sapiens, UniProt Q9NP56); test: PDE7 enzymatic assay, IC50 determination (PDE7B); assay type: biochemical; settings: human recombinant enzyme, 0.1 μM FAM-cAMP, 30 min 25° C.
T2 construct: host or cells: Sf9 insect cells
Procedure: as §1, §2

[5] = tested on: PDE7 enzyme; settings: cited from earlier work

T1 sequence (Q13946 whole entry): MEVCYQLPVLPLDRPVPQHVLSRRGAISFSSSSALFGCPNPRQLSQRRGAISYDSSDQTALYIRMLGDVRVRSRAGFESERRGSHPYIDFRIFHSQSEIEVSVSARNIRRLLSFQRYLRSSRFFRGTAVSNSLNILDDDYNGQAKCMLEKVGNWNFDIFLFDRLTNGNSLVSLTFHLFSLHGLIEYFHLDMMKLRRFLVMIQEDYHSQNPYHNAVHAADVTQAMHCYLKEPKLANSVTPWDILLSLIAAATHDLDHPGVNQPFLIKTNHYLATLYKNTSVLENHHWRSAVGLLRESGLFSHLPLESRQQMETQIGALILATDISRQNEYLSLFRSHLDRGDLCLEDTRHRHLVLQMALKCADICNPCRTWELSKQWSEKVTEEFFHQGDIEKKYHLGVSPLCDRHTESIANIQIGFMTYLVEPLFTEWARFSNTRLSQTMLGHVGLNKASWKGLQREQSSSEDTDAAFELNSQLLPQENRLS
T2 sequence (Q9NP56 whole entry): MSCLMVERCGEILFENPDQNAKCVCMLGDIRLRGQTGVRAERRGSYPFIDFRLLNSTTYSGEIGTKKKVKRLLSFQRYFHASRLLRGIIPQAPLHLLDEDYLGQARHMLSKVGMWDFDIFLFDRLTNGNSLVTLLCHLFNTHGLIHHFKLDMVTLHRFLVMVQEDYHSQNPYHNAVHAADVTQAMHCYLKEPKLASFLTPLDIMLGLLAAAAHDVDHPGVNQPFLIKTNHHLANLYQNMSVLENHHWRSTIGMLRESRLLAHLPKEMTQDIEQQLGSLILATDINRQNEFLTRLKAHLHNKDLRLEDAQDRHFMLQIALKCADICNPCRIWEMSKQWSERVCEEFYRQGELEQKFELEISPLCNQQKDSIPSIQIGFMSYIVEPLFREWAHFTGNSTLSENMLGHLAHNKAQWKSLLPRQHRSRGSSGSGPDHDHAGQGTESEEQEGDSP

SMILES | IC50 [2] | IC50 [3] | other results
OCCN(CCO)c1nc(N2CCCCC2)c2nc(N(CCO)CCO)nc(N3CCCCC3)c2n1 [Dipyridamole, 2,2′,2″,2′″-[[4,8-Di(piperidin-1-yl)pyrimido[5,4-d]pyrimidine-2,6-diyl]dinitrilo]tetraethanol, reference compound] | 42000 nM |  | Mean residual contractile force in % (SEM in %) ([1]; 30 μM in the presence of salbutamol 1 μM): 46.3 (6.3); n = 15; p < 0.01%; effect on residual contractile force compared with salbutamol alone ([1]; test compound plus salbutamol 1 μM, KCl 12.5 mM buffer): numerically stronger effect than salbutamol alone
Cc1nn(C2CCOCC2)c2sc(C(=O)N[C@H]3CC[C@H](N4CCOCC4)CC3)cc12 [Formula No. 6E] |  | 24 nM | 
Cc1ccc([N+](=O)[O-])cc1S(=O)(=O)N(C)C [Formula No. 8A] |  |  | Mean residual contractile force in % (SEM in %) ([1]; 4.5 μM in the presence of salbutamol 1 μM): 80.2 (6.0); n = 15; p < 0.001%
O=C1Nc2c(Cl)ccc(Oc3ccccc3-c3nnn[nH]3)c2C2(CCCCC2)N1 [Formula No. 35A] | 0.3 nM |  | IC50 [4]: 0.9 nM
S=c1[nH]c2ccccc2c(=S)n1-c1ccccc1 [Formula No. 42A, 3-phenyl-2,4(1H,3H)-quinazolinedithione] |  |  | Mean residual contractile force in % (SEM in %) ([1]; 3.5 μM in the presence of salbutamol 1 μM): 48.5 (8.6); n = 7; p < 0.05%
O=C1Nc2c(Cl)ccc(O[C@H]3C[C@H](C(=O)O)C3)c2C2(CCCCC2)N1 [Formula No. 44A] | 26 nM |  | IC50 [4]: 72 nM; Mean residual contractile force in % (SEM in %) ([1]; 26 nM in the presence of salbutamol 1 μM): 63.5 (7.8); n = 6; p < 0.01%
COc1ccc(Cn2c(=O)c3cc(OC(CF)CF)c(F)cc3n(C3CCN(C=O)CC3)c2=O)cc1OC [Formula No. 55E] | 14.2 nM |  | IC50 [4]: 83 nM; Mean residual contractile force in % (SEM in %) ([1]; 29 nM in the presence of salbutamol 1 μM): 69.3 (4.1); n = 5; p < 0.01%
O=CN1CCC(n2c(=O)n(Cc3ccc(-c4cccs4)cc3)c(=O)c3cc(OC(CF)CF)c(F)cc32)CC1 [Formula No. 55J] |  | < 100 nM | 
CC(C)Cn1c(=O)n(C)c(=O)c2[nH]cnc21 [IBMX, 3-isobutyl-1-methylxanthine, reference compound] | 10000 nM |  | 
CC(C)(C)NCC(O)c1ccc(O)c(CO)c1 (stereo not shown) [Salbutamol, reference compound] |  |  | Mean residual contractile force in % (SEM in %) ([1]; salbutamol alone 1 μM): 26.5 (3.9); n = 30%
COc1ccc(C2CNC(=O)C2)cc1OC1CCCC1 (stereo not shown) [rolipram] |  |  | inhibition of PDE7 by rolipram [5]: not inhibited

Second part, led by results:

IC50 [2] | IC50 [3] | SMILES | other results
 | 20 nM | Cc1nn(C2CCCCC2)c2sc(C(=O)Nc3ccc(N4CCNC4=O)nc3)cc12 [Formula No. 6A] | 
11.1 nM | 33 nM | CNC(=O)c1ccc(NC(=O)c2cc3c(C)nn(C4CCCCC4)c3s2)cn1 [Formula No. 6B] | IC50 [4]: 53 nM; Mean residual contractile force in % (SEM in %) ([1]; 0.99 μM in the presence of salbutamol 1 μM): 50.7 (3.6); n = 6; p < 0.05%
 | 14 nM | Cc1nn(C2CCCCC2)c2sc(C(=O)Nc3ccc(C(=O)N(C)C)cc3)cc12 [Formula No. 6C] | 
 | 37 nM | CC(=O)Nc1ccc(NC(=O)c2cc3c(C)nn(C4CCCCC4)c3s2)cc1 [Formula No. 6D] | 
 | 19 nM | CC(=O)N1CCN([C@H]2CC[C@H](NC(=O)c3cc4c(C)nn(C5CCOCC5)c4s3)CC2)CC1 [Formula No. 6F] | 
 | 20 nM | Cc1nn(C2CCCCC2)c2sc(C(=O)NCC(C)(C)CN3C(=O)CNC3=O)cc12 [Formula No. 6G] | 
 | 34 nM | Cc1nn(C2CCCCC2)c2sc(C(=O)N[C@H](C)CN3C(=O)CNC3=O)cc12 [Formula No. 6H] | 
